# Data as given in article doi:10.1101/2023.08.20.554024v1, “Structural framework for the understanding spectroscopic and functional signatures of the cyanobacterial Orange Carotenoid Protein families” (biorxiv, 2023).
# What was measured:
# SynOCP1 = target: T1, SynOCP1 (Synechocystis sp. PCC 6803, UniProt P74102); experiment: absorbance spectrum and photocycle of the holoprotein; assay type: binding; details: bound in E. coli making echinenone; pH 7.6, 150 mM NaCl
# T1 construct: gene slr1963; full length from E. coli, tag removed, from earlier work; monomer in solution
# T1 sequence (P74102 2-317): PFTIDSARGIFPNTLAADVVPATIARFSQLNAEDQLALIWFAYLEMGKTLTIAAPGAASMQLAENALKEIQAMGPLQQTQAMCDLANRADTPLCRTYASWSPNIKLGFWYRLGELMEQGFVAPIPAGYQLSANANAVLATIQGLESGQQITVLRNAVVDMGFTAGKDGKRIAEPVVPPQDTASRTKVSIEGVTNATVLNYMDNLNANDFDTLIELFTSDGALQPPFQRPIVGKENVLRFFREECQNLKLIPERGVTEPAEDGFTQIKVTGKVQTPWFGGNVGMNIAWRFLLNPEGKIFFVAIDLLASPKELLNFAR
# CrinOCP2 = target: T2, CrinOCP2 (Crinalium epipsammum, UniProt K9VSN3, E26A); experiment: X-ray crystal structure, […] A; assay type: binding; details: bound in E. coli making echinenone; crystals pH 6.5; carotenoid site between NTD and CTD, keto group at Tyr201/Trp288
# T2 construct: gene Cri9333_0045; full length from E. coli C41(DE3), codon-optimized, pET28a+, His-tag cut by thrombin leaving N-terminal GSH; monomer
# T2 sequence (K9VSN3 1-319 E26A): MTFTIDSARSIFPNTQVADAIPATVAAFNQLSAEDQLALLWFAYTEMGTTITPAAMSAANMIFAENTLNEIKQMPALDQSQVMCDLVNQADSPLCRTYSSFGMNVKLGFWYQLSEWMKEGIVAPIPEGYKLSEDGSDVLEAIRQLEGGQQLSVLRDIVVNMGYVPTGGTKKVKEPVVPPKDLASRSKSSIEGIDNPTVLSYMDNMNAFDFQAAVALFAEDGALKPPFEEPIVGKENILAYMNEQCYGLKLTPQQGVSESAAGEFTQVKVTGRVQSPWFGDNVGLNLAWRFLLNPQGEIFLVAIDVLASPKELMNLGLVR
smiles,measurement,setting,value
"CC1=C(/C=C/C(C)=C/C=C/C(C)=C/C=C/C=C(C)/C=C/C=C(C)/C=C/C2=C(C)C(=O)CCC2(C)C)C(C)(C)CCC1 [ECH, echinenone]",absorbance spectrum and photocycle of the holoprotein,SynOCP1,All proteins were ECH-bound.
same,"X-ray crystal structure, 2.2 A",CrinOCP2,HPLC analysis indicated that both OCP2 variants contained ECH as the predominant carotenoid
